Experimental data reported in PubChem BioAssay AID1963875 (Molecular Pharmacology Branch, DTP, NCI, 2024).
“And” between values parts separate entries of the source, which are not always exact repeats. Equal values may be shown once.

Tested on: KRAS-mutant PDC complex spheroid viability
Test: Anticancer human tumor 186277-243-T-J2-PDC patient-derived colon adenocarcinoma cell line growth inhibition [KRAS2]
Details: for viability, T/C: stronger effect = lower value
Source text: Multicellular complex tumor spheroid response to RAS pathway inhibitors in combination with a targeted agents in patient-derived cell lines with oncogenic KRAS variants from multiple cancer types
A high-throughput screen of multi-cell type tumor spheroids was designed to identify active combinations of targeted small molecules and KRAS pathway inhibitors. Complex spheroids include a stromal component modeled by human endothelial cells (HUVEC) and fibroblasts modeled by human mesenchymal stem cells (MSCs). The concentration ranges selected for each drug and investigational agent were based upon clinically achievable concentrations if the clinical Cmax of the agent was known.
Compounds. The drugs and investigational agents: BI-3406 (NSC825286), BAY-293 (NSC824723), batoprotafib (TNO155; NSC825523), sotorasib (AMG 510; NSC818433), MRTX1257 (NSC819558), elimusertib (BAY 1895344; NSC800525), molibresib (GSK525762; NSC774829), temuterkib (LY3214996; NSC803410), venetoclax (NSC766270), alisertib (NSC759677), olaparib (NSC753686), talazoparib (NSC767125), erdafitinib (NSC781556), ipatasertib (NSC767898), cabozantinib (NSC761068), nintedanib (NSC756659), abemaciclib (NSC768073), docetaxel (NSC628503), trametinib (NSC758246), and sapanisertib (NSC764658) were obtained from the National Cancer Institute (NCI) Developmental Therapeutics Program Chemical Repository. The FDA-approved anticancer drug set is available from the Developmental Therapeutics Program. […] The stock solutions were prepared in dimethyl sulfoxide (DMSO, Sigma-Aldrich, St. Louis, MO, cat. D2650) at 800-fold the tested concentration and stored at -70 degrees C prior to their use. All drugs and investigational agents were tested over a range starting from a high concentration at or near the clinical Cmax and decreasing in half-log increments. If the clinical Cmax for an agent had not been determined, the highest concentration tested was 10 microM.
Cell Culture. All cells were maintained in an incubator at 37 degrees C and 5% CO2 with 95% humidity. The PDC lines were cultured according to standard operating procedures established by the NCI PDMR (https://pdmr.cancer.gov/sops/default.htm). Briefly, all PDCs were thawed and cultured in Matrigel-coated flasks prepared with a working solution of 1X Ham's F-12 nutrient mix, without supplementation (Invitrogen, Waltham, MA, cat. 11765054), 100 U/mL penicillin-streptomycin (Invitrogen, cat. 15140122), and 2.5% Matrigel (Corning Inc., Corning, NY, cat. 354248) for the first three passages. All PDCs were cultured in complete DMEM/F-12 media containing advanced DMEM/F-12 (Invitrogen, cat. 12634028), 4.9% defined fetal bovine serum, heat inactivated (HyClone Laboratories Inc., Logan, UT, cat. SH30070.03HI), 389 ng/mL hydrocortisone (Sigma-Aldrich, cat. H4001), 9.7 ng/mL human EGF recombinant protein (Invitrogen, cat. PHG0313), 23.4 microg/mL adenine (Sigma-Aldrich, cat. A2786), 97.3 U/mL penicillin-streptomycin (Invitrogen, cat. 15140122), 1.9 mM L-glutamine (Invitrogen, cat. 25030081), and 9.7 microM Y-27632 dihydrochloride (Tocris Bioscience, Bristol, United Kingdom, cat. 1254). The PDCs were cultured in complete DMEM/F12 media without 9.7 microM Y-27632 dihydrochloride for at least two passages prior to the screen. The established cell line HOP-62 was cultured in RPMI 1640 medium, HEPES (Invitrogen, cat. 22400105) with 10% defined fetal bovine serum (HyClone Laboratories Inc., cat. SH30070.03) and 2 mM L-glutamine (Invitrogen, cat. 25030081). The pooled donor HUVEC were cultured in endothelial cell growth medium 2 (PromoCell, Heidelberg, Germany, cat. C-22011) and the hMSC were cultured in mesenchymal stem cell growth medium 2 (PromoCell, cat. C-28009). For all experiments, HUVEC and hMSC were used at passages </=5, while the malignant cell lines were used at passages </=15. […]

[1] = compound alone, run of 07/12/2021
[2] = compound alone, run of 07/19/2021
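Throughout, for viability, T/C: viability read after seven days of compound exposure; 100% = DMSO vehicle-treated spheroids so lower means less viable.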

SMILES | viability, T/C (compound 0.0316 µM) | viability, T/C (compound 0.1 µM) | IC50 (curve of compound) | viability, T/C (compound 0.000316 µM) | viability, T/C (compound 0.00316 µM) | viability, T/C (compound 0.01 µM) | viability, T/C (compound 0.316 µM) | viability, T/C (compound 10 µM) | IC50 [1] | IC50 [2] | IC50 (compound alone, run of 07/26/2021) | viability, T/C (compound 1 µM) | viability, T/C (compound 3.16 µM) | viability, T/C (compound 0.001 µM)
CCNC(=O)CC1N=C(c2ccc(Cl)cc2)c2cc(OC)ccc2-n2c(C)nnc21 (stereo not given) | 96.3% [middle of 5 runs] | 101% (4×) and 92.8% | > 10 µM and 5.78 µM | – | – | – | – | – | – | – | – | – | – | –
CN(C)C/C=C/C(=O)Nc1cc2c(Nc3ccc(F)c(Cl)c3)ncnc2cc1O[C@H]1CCOC1 | 120% (3×) and 114% and 105% | 111% [middle of 5 runs] | > 0.1 µM | 101% [middle of 5 runs] | 101% [middle of 5 runs] | 108% [middle of 5 runs] | – | – | – | – | – | – | – | –
CNCc1ccccc1-c1csc(C(C)Nc2nc(C)nc3cc(OC)c(OC)cc23)c1 (stereo not given) | – | 100% [middle of 17 runs] | – | – | – | – | 98.9% [middle of 17 runs] | 0.16% [middle of 12 runs] | 5.56 µM [middle of 6 runs] | 2.27 µM [middle of 5 runs] | 5.05 µM [middle of 6 runs] | – | – | –
COC(=O)c1ccc2c(C(=Nc3ccc(N(C)C(=O)CN4CCN(C)CC4)cc3)c3ccccc3)c(O)[nH]c2c1 | 93.8% [middle of 5 runs] | 104% [middle of 5 runs] | 3.62 µM [middle of 4 runs] | – | – | – | 99.4% [middle of 5 runs] | 16% [middle of 5 runs] | – | – | – | 107% [middle of 5 runs] | – | –
COc1cc(Nc2ncc3c(n2)-c2ccc(Cl)cc2C(c2c(F)cccc2OC)=NC3)ccc1C(=O)O | 37.6% [middle of 5 runs] | 34.1% [middle of 5 runs] | < 0.0316 µM | – | – | – | 33.4% [middle of 5 runs] | 50.4% [middle of 5 runs] | – | – | – | 37% [middle of 5 runs] | 46.8% [middle of 5 runs] | –
COc1cc(OC)cc(N(CCNC(C)C)c2ccc3ncc(-c4cnn(C)c4)nc3c2)c1 | 109% [middle of 5 runs] | 106% [middle of 5 runs] | – | – | – | – | – | – | – | – | – | – | – | –
COc1cc2nc(C)nc(NC(C)c3cc(N)cc(C(F)(F)F)c3)c2cc1OC1CCOC1 (stereo not given) | – | – | – | – | – | – | – | – | > 10 µM | > 10 µM | – | 101% [middle of 17 runs] | – | –
COc1cc2nccc(Oc3ccc(NC(=O)C4(C(=O)Nc5ccc(F)cc5)CC4)cc3)c2cc1OC | 92.6% [middle of 5 runs] | 99.7% [middle of 5 runs] | 2.02 µM [middle of 4 runs] | – | – | – | 104% [middle of 5 runs] | – | – | – | – | – | 13.8% [middle of 5 runs] | –
Cn1nccc1Nc1nccc(-c2cc3c(s2)C(C)(C)N(CCN2CCOCC2)C3=O)n1 | 101% [middle of 5 runs] | 90.8% [middle of 5 runs] | 383 nM [middle of 5 runs] | – | – | – | – | 6.23% [middle of 5 runs] | – | – | – | 16% [middle of 5 runs] | 6.29% [middle of 5 runs] | –
Cn1ncnc1[C@H]1c2n[nH]c(=O)c3cc(F)cc(c23)N[C@@H]1c1ccc(F)cc1 | 91% [middle of 5 runs] | 80.8% [middle of 5 runs] | > 0.1 µM | 99% [middle of 5 runs] | 101% [middle of 5 runs] | 98.1% [middle of 5 runs] | – | – | – | – | – | – | – | 98% [middle of 5 runs]
O=C(c1cc(Cc2n[nH]c(=O)c3ccccc23)ccc1F)N1CCN(C(=O)C2CC2)CC1 | 99.2% [middle of 5 runs] | 101% [middle of 5 runs] | – | – | – | – | 99.5% [middle of 5 runs] | 40.3% [middle of 5 runs] | – | – | – | – | – | –
